Our source for the IC50 values is patent US9890147B2 (BAYER PHARMA AKTIENGESELLSCHAFT, priority 2012, dated 2018).

For assay [1], the system named is LAPC-4 cells. The assay can be described thus: Cell proliferation assay (alamarBlue), LAPC-4. The class given is cell-based. The following applies: Homo sapiens, LAPC4; inhibition of cell proliferation, LAPC-4 (prostate cancer), 1 nM methyltrienolone, 168 hours. The method, then:
(§1) In accordance with the invention, the capability of the substances to inhibit cell proliferation was determined Cell viability was determined using the alamarBlue® reagent (Invitrogen) in a Victor X3 Multilabel Reader (Perkin Elmer). The excitation wavelength was 530 nm and the emission wavelenth […].
The LAPC-4 cells (ATCC, PTA-1441TM) were sown at a concentration of 4000 cells/well in 100 μl growth medium (RPMI1640, 2 mM L-glutamine, 10% cFCS) on 96-well microtitre plates. A day later, the LAPC-4 cells were treated with 1 nM methyltrienolone and various substance dilutions.
(§2) After an overnight incubation at 37° C., the fluorescence values (CI values) were determined. The plates were then treated with various substance dilutions (1E-5 M, 3E-6 M, 1E-6M, 3E-7 M, 1E-7 M, 3E-8 M, 1E-8 M) and incubated at 37° C. for 72 (MV4-11-, LOX-IMVI cells), 96 (MOLM-13-, B16F10-, MDA-MB-431-, Caov-3 cells), 120 (MOLP-8-, KMS-12-PE cells) or 168 (LAPC-4 cells) hours. The fluorescence values (CO values) were then determined. For the data analysis, the CI values were subtracted from the CO values and the results were compared between cells treated with different dilutions of the substance or with buffer solution only. These were used to calculate the IC 50 values (substance concentration required for 50% inhibition of cell proliferation).

Assay [2] has as its system MOLM-13 cells. The assay can be described thus: Cell proliferation assay (alamarBlue), MOLM-13. The following applies: Homo sapiens, 96 hours incubation, inhibition of cell proliferation. Type of assay: cell-based. In a few lines:
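IC50 = concentration giving 50% growth inhibition relative to buffer-treated cells, after subtracting baseline fluorescence taken before dosing. Compound applied at 1E-5 to 1E-8 M for 96 h at 37 °C in RPMI1640 with 10% FCS; alamarBlue signal at 530/590 nm.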

Assay [3] concerns B16F10 cells. In words: Cell proliferation assay (alamarBlue), B16F10. The class given is cell-based. The following applies: Mus musculus, B16-F10, 96 hours incubation, inhibition of cell proliferation. The method, then: as §1
The B16F10 cells (ATCC, CRL-6475) were sown at a concentration of 300-500 cells/well in 100 μl growth medium (DMEM with phenol red, 10% FCS) on 96-well microtitre plates.
as §2

The subject of assay [4] is MDA-MB-231 cells. The assay can be described thus: Cell proliferation assay (alamarBlue), MDA-MB-231. The class given is cell-based. The conditions noted are these: Homo sapiens; inhibition of cell proliferation, MDA-MB-231 (breast carcinoma), 96 hours. The method, then: as §1
The MDA-MB-231 cells (DSMZ, ACC 732) were sown at a concentration of 4000 cells/well in 100 μl growth medium (DMEM/Ham's F12 medium, 10% FCS) on 96-well microtitre plates. The Caov-3 cells (ATCC, HTB-75) were sown at a concentration of 2000 cells/well in 100 μl growth medium (MEM Earle's medium, 10% FCS) on 96-well microtitre plates.
as §2

Assay [5] deals with T1, BRD4 (BD1) (Homo sapiens, UniProt O60885).
T1 construct: with relatively long constructs also being possible, preferably amino acids 44-168; made in house; host or cells: E. coli
In words: Binding assay BRD4/acetylated peptide H4 (TR-FRET protein-protein interaction assay). The gist of the method:
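Displacement of biotin-Ac-H4 peptide from His6-tagged BRD4(BD1), final usually 10 nM, read as Eu-streptavidin to anti-His-XL665 TR-FRET (665/620 nm). Compounds tested at 11 doses up to 20 μM in duplicate, pH 7.5 HEPES, 22 °C then 4 °C incubation; IC50 by 4-parameter regression.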

Assay [6] deals with LOX-IMVI cells. The assay can be described thus: Cell proliferation assay (alamarBlue), LOX-IMVI. The class given is cell-based. The conditions noted are these: Homo sapiens, 72 hours incubation, inhibition of cell proliferation. In a few lines:
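alamarBlue fluorescence (530 nm excitation, 590 nm emission) measured before dosing and after 72 h at 37° C exposure to 1E-5–1E-8 M compound; 1000 cells/well plated in RPMI1640/10% FCS the night before. IC50 from baseline-corrected signal relative to buffer-treated wells.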

The test system of assay [7] is KMS-12-PE cells. In words: Cell proliferation assay (alamarBlue), KMS-12-PE. The conditions noted are these: Homo sapiens, 120 hours incubation, inhibition of cell proliferation. Type of assay: cell-based. In a few lines: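 KMS-12-PE myeloma cells in RPMI1640 with 20% FCS were exposed to compound (1E-5 to 1E-8 M) for 120 h at 37° C. AlamarBlue fluorescence (ex 530, em 590 nm) read before and after treatment; the difference versus buffer-treated cells gave IC50.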

Assay [8] deals with Caov-3 cells. In words: Cell proliferation assay (alamarBlue), Caov-3. The class given is cell-based. The conditions noted are these: Homo sapiens; inhibition of cell proliferation, Caov-3 (ovarian carcinoma), 96 hours. The gist of the method:
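Caov-3 (MEM Earle's, 10% FCS, 2000 cells/well) and MDA-MB-231 (DMEM/Ham's F12, 10% FCS, 4000 cells/well) were treated after overnight attachment with 1E-5 to 1E-8 M compound. Caov-3 exposure was 96 h. alamarBlue fluorescence (ex 530, em 590 nm) was read after background subtraction of day-0 values, and IC50 calculated versus buffer-treated cells.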

Assay [9] deals with MOLP-8 cells. In words: Cell proliferation assay (alamarBlue), MOLP-8. The class given is cell-based. The conditions noted are these: Homo sapiens, 120 hours incubation, inhibition of cell proliferation. The gist of the method:
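MOLP-8 cells in RPMI1640 with 20% FCS, 4000 cells/well, treated overnight after seeding with substance at 1E-5 to 1E-8 M for 120 h at 37° C. Viability read by alamarBlue fluorescence (ex 530, em 590); pre-treatment values subtracted, compared with buffer-only cells to derive IC50.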

Assay [10] deals with MV4-11 cells. The assay can be described thus: Cell proliferation assay (alamarBlue), MV4-11. The class given is cell-based. The following applies: Homo sapiens, 72 hours incubation, inhibition of cell proliferation. The gist of the method:
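Cells seeded at 5000/well in RPMI1640 + 10% FCS, incubated overnight at 37° C, then treated with compound (1E-5 to 1E-8 M) for 72 h at 37° C. Viability by alamarBlue fluorescence (ex 530/em 590 nm); pre-treatment readings subtracted, IC50 derived versus buffer-treated cells.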

A value given as a limit tells only on which side of the number the result lay.

As for `CNC(=O)N1N=C(c2ccc(Cl)cc2)c2cc(OC(F)(F)F)ccc2CC1C` (racemic) [Example 1, (±)-1-(4-Chlorophenyl)-N,4-dimethyl-8-(trifluoromethoxy)-4,5-dihydro-3H-2,3-benzodiazepine-3-carboxamide], the IC50 was determined as 600 nM in assay [1]; 1260 nM in assay [2]; 690 nM in assay [3]; 900 nM in assay [4]; 190 nM in assay [5].

In the case of `CNC(=O)N1N=C(c2ccc(-c3ccc(C(=O)O)s3)cc2)c2cc(OC)c(OC)cc2CC1C` (racemic) [Example 5, (±)-5-(4-{7,8-dimethoxy-4-methyl-3-[(methylamino)carbonyl]-4,5-dihydro-3H-2,3-benzodiazepin-1-yl}phenyl)thiophene-2-carboxylic acid], the IC50 in assay [1] came out at 270 nM; in [2] it was 820 nM; in [3], 690 nM; in assay [4] it was 1350 nM; in [5], 30 nM.

Turning to `CNC(=O)N1N=C(c2ccc(Cl)cc2)c2cc(-c3ccncc3)ccc2CC1C` (racemic) [Example 8, (±)-1-(4-Chlorophenyl)-N,4-dimethyl-8-(pyridin-4-yl)-4,5-dihydro-3H-2,3-benzodiazepine-3-carboxamide], the IC50 in assay [1] is 180 nM; in assay [2] it was 380 nM; in assay [3], 190 nM; in assay [4], 280 nM; in [5] it was 90 nM.

In the case of `CNC(=O)N1N=C(c2ccc(Cl)cc2)c2cc(C3CC3)ccc2CC1C` (racemic) [Example 9, (±)-1-(4-chlorophenyl)-8-cyclopropyl-N,4-dimethyl-4,5-dihydro-3H-2,3-benzodiazepine-3-carboxamide], the IC50 in assay [1] stood at 430 nM; in assay [2], 650 nM; in assay [3], 540 nM; in [4], 730 nM; in assay [5], 120 nM.

As to `CNC(=O)N1N=C(c2ccc(Cl)cc2)c2cc(-c3ccc(S(=O)(=O)NC)cc3)ccc2CC1C` (racemic) [Example 10, (±)-1-(4-chlorophenyl)-N,4-dimethyl-8-{4-[(methylamino)sulphonyl]phenyl}-4,5-dihydro-3H-2,3-benzodiazepine-3-carboxamide], the IC50 in assay [1] is 120 nM; in [2] it was 310 nM; in [3], 270 nM; in assay [4], 260 nM; in assay [5] it was 160 nM.

Regarding `CNC(=O)N1N=C(c2ccc(Cl)cc2)c2cc(N3CCOCC3)ccc2CC1C` (racemic) [Example 11, (±)-1-(4-Chlorophenyl)-N,4-dimethyl-8-(morpholin-4-yl)-4,5-dihydro-3H-2,3-benzodiazepine-3-carboxamide], the IC50 in assay [1] is 450 nM; in [2] it was 1910 nM; in assay [3], 1120 nM; in [4], 2580 nM; in [5], 310 nM.

In the case of `CNC(=O)N1N=C(c2ccc(Cl)cc2)c2cc(N3CCN(C)CC3)ccc2CC1C` (racemic) [Example 12, (±)-1-(4-Chlorophenyl)-N,4-dimethyl-8-(4-methylpiperazin-1-yl)-4,5-dihydro-3H-2,3-benzodiazepine-3-carboxamide], the IC50 amounted to 870 nM in [1]; 1610 nM in [2]; 1320 nM in [3]; 1850 nM in [4]; 540 nM in assay [5].

On to `CNC(=O)N1N=C(c2ccc(Cl)cc2)c2cc(N3CCCCC3)ccc2CC1C` (racemic) [Example 13], for which the half-inhibitory concentration (IC50) in [1] is 900 nM; in assay [2], 1440 nM; in [3], 920 nM; in assay [4], 1300 nM; in assay [5], 210 nM.

For `CNC(=O)N1N=C(c2cccnc2)c2cc(OC)ccc2CC1C` (racemic) [Example 14, (±)-8-Methoxy-N,4-dimethyl-1-(pyridin-3-yl)-4,5-dihydro-3H-2,3-benzodiazepine-3-carboxamide], the IC50 in assay [1] came out at 1650 nM; in [2], 3070 nM; in [3], 2630 nM; in [4], 3640 nM; in assay [5], 590 nM.

As to `CNC(=O)N1N=C(c2ccc(Cl)cc2)c2cc(OC(F)(F)F)ccc2C[C@H]1C` [Example 1.2, (4R)-1-(4-Chlorophenyl)-N,4-dimethyl-8-(trifluoromethoxy)-4,5-dihydro-3H-2,3-benzodiazepine-3-carboxamide], the IC50 in assay [1] is 5170 nM; in assay [2], > 10000 nM; in assay [3] it was > 10000 nM; in [4] it was > 10000 nM; in assay [5], 2500 nM.

For `CNC(=O)N1N=C(c2ccc(-c3c(C)noc3C)cc2)c2cc(OC)c(OC)cc2C[C@H]1C` [Example 2.1, (4R)-1-[4-(3,5-Dimethyl-4-isoxazolyl)phenyl]-7,8-dimethoxy-N,4-dimethyl-4,5-dihydro-3H-2,3-benzodiazepine-3-carboxamide], the IC50 in [1] amounted to 710 nM; in [2] it was 1510 nM; in assay [3], 1050 nM; in assay [4] it was 1390 nM; in [5], 250 nM.

Turning to `CNC(=O)N1N=C(c2ccc(N3CCOCC3)cc2)c2cc(OC)ccc2C[C@@H]1C` [Example 17, (4S)-8-Methoxy-N,4-dimethyl-1-[4-(morpholin-4-yl)phenyl]-4,5-dihydro-3H-2,3-benzodiazepine-3-carboxamide], the IC50 in assay [6] was determined as 300 nM; in [1] it was 100 nM; in [2] it was 170 nM; in assay [7], 110 nM; in assay [8], 220 nM; in [9], 110 nM. For the same compound, the IC50 is 210 nM in assay [4], 40 nM in [5] and 130 nM in [10].

Regarding `CNC(=O)N1N=C(c2ccc(-c3c(C)noc3C)cc2)c2cc(OC)ccc2C[C@@H]1C` [Example 20, (4S)-1-[4-(3,5-dimethyl-4-isoxazolyl)phenyl]-8-methoxy-N,4-dimethyl-4,5-dihydro-3H-2,3-benzodiazepine-3-carboxamide], the concentration for half-maximal inhibition (IC50) was found to be 330 nM in assay [6]; 120 nM in assay [1]; 190 nM in assay [2]; 110 nM in assay [7]; 240 nM in assay [8]; 120 nM in assay [9]. For the same compound, the figures for the IC50 in assay [4], in [5] and in assay [10] were 220 nM, 70 nM and 140 nM, respectively.
